Series [1] concerns Human Breast Adenocarcinoma Cell Line MDA-MB-231. Nature of the series: Drug cytotoxicity testing (viable cell count, trypan blue exclusion, cell growth inhibition). It is filed as cell-based. Conditions: for inhibition at 0.1 µM / inhibition at 0.01 µM / inhibition at 0.001 µM: Homo sapiens; for cell growth inhibition in (A) compared to compound in B / cell growth inhibition reached on increase of the concentration, in (B): sodium salt, range 10^-9 to 10^-7 M; for cell growth inhibition reached on increase of the concentration, in (B): dilution in normal saline (B). As to the method: MDA-MB-231 cells were propagated in MEM culture medium with 2 mM L-glutamine, 10% heat-inactivated fetal bovine serum (FBS) and antibiotics. DU 145 cells were cultured in MEM culture medium containing 2 mM L-glutamine, 1 mM sodium pyruvate, 10% FBS and antibiotics. SKOV-3 cells were cultured in McCoy's 5A culture medium, supplemented with 1,5 mM L-glutamine, 10% FBS and antibiotics. A549 cells were cultured in Ham's F-12 culture medium with 1 mM L-glutamine, 10% FBS and antibiotics. All media and supplements were purchased from Sigma-Aldrich (St.Louis, MO, USA). Cell propagation of all lines was carried out in Falcon™ 25 cm^2 cultivation flasks (Becton Dickinson Labware).
Drug cytotoxicity testing was carried out with using Falcon™ 96-well cultivation plates for adherent cells (Becton Dickinson Labware). These plates were seeded by cells either at 12 × 10^3 MDA-MB-231 cells/well, or at 12 × 10^3 DU 145 cells/well, or at 14 × 10^3 SKOV-3 cells/well, or at 10 × 10^3 A549 cells/well in a volume of 200 µL/well.
The cell cultures in cultivation plates were allowed to adhere for 24 hour of incubation. On day 1 after cell seeding, 2 µL solutions of the drugs to be tested in medium with 5% FBS was added to the cultures. In the control cultures, 2 µL of medium with 5% FBS was added as solvent control. The cells were incubated for 2 consecutive days. At the end of the incubation period adherent cells were detached by trypsinization and the number of viable cells was counted using trypan blue exclusion test and a hemocytometer. All data were derived from an average of three determinations each in six replicates. The results were expressed as mean cell number ± SE and the differences between control and test series evaluated by means of Student's t-test. The drug cytotoxicity was evaluated based on the extent of cell growth inhibition. The cell growth inhibition of the tested drugs was calculated as follows: Cell growth inhibition,% = (Control-TestSeries)/(Control) × 100 [formula]
In the case of comparative evaluation of cytotoxicity of the inventive compounds themselves and the formulation related to consecutive dilutions of their initial solutions before adding to the cultures, 2 µL solutions of the drugs to be tested in medium with 5% FBS, in normal saline and in saline with 2,3 mM CaCl2 were added to the cultures. In control cultures, 2 µL of medium with 5% FBS, normal saline and saline with 2,3 mM CaCl2 were added as solvent controls (negative controls). […] Therefore an average of negative controls was calculated. […] Therefore an average of positive controls was calculated (for each antibiotic).

For series [2] the following is noted: rat, in vivo, ip; for mortality: 100 mg/kg.
Description: A single dose i.p. toxicity study in rats was carried out. […] The minimal lethal dose is thus above 100 mg/kg body weight for these compounds.
[3] abbreviates: MDA-MB-231, 48 h, compound alone, final concentration 10^-7 mol/L, working solutions in MEM with 5% FBS, two days, read-out: cell growth inhibition.
[4] abbreviates: MDA-MB-231, 48 h, compound alone, final concentration 10^-8 mol/L, working solutions in MEM with 5% FBS, two days, read-out: cell growth inhibition.
The mark [5] stands for this setting: MDA-MB-231, 48 h, compound alone, final concentration 10^-9 mol/L, working solutions in MEM with 5% FBS, two days, read-out: cell growth inhibition.
The mark [6] stands for this setting: MDA-MB-231, compound alone 10^-7 mol/L, in A (saline with […] CaCl2), read-out: cell growth inhibition.
The mark [7] stands for this setting: MDA-MB-231, compound alone 10^-7 mol/L, in B (normal saline), read-out: cell growth inhibition.
[8] abbreviates: MDA-MB-231, compound alone 10^-7 mol/L, read-out: Cell growth inhibition in A compared to that in B was increased by.
The mark [9] stands for this setting: MDA-MB-231, compound alone 10^-8 mol/L, in A (saline with […] CaCl2), read-out: cell growth inhibition.
Setting [10] is: MDA-MB-231, compound alone 10^-8 mol/L, in B (normal saline), read-out: cell growth inhibition.
Setting [11] is: MDA-MB-231, compound alone 10^-8 mol/L, read-out: Cell growth inhibition in A compared to that in B was increased by.
Setting [12] is: MDA-MB-231, compound alone 10^-9 mol/L, in A (saline with […] CaCl2), read-out: cell growth inhibition.
Setting [13] is: MDA-MB-231, compound alone 10^-9 mol/L, in B (normal saline), read-out: cell growth inhibition.
[14] abbreviates: MDA-MB-231, compound alone 10^-9 mol/L, read-out: Cell growth inhibition in A compared to that in B was increased by.
Where [15] appears, read: compound alone 10^-7 mol/L, in B (normal saline).
Where [16] appears, read: compound alone 10^-8 mol/L, in B (normal saline).
Setting [17] is: compound alone 10^-9 mol/L, in B (normal saline).
The mark [18] stands for this setting: compound alone, final concentration 10^-7 mol/L, working solutions in MEM with 5% FBS, two days.
Setting [19] is: compound alone, final concentration 10^-8 mol/L, working solutions in MEM with 5% FBS, two days.
Where [20] appears, read: compound alone, final concentration 10^-9 mol/L, working solutions in MEM with 5% FBS, two days.

What is called inhibition is the change of the read-out against control, counted positive when it falls.

SMILES strings stand for the structures. Where two headings read alike, the source gives them in different places.

With `CC1=C(/C=C/C(C)=C/C=C/C(C)=C/C(=O)N[C@@H](CS(=O)(=O)O)C(N)=O)C(C)(C)CCC1` [compound I-1f, N-(all-trans-retinoyl)-L-cysteic acid amide], the inhibition at 0.1 µM amounted to 52.5% in series [1] (setting [3]), 53.3% in series [1] (setting [6]), 44.9% in series [1] (setting [7]) and 15.2% in series [1] (setting [8]). Also, the inhibition at 0.01 µM in series [1] (setting [4]) was 48.6%; in series [1] (setting [9]), 46.3%; in series [1] (setting [10]), 36.1%; in series [1] (setting [11]), 16.1%. In addition, the inhibition at 0.001 µM in series [1] (setting [5]) is 44.8%; in series [1] (setting [12]), 38.6%; in series [1] (setting [13]), 25.8%; in series [1] (setting [14]), 17.1%. The “number of viable cells” value was 31.6 ± 0.89 × 10^3 in series [1] (setting [15]); 36.7 ± 0.75 × 10^3 in series [1] (setting [16]); 42.6 ± 0.80 × 10^3 in series [1] (setting [17]); 25.3 ± 1.11 × 10^3 in series [1] (setting [18]); 27.4 ± 1.42 × 10^3 in series [1] (setting [19]); 29.4 ± 2.15 × 10^3 in series [1] (setting [20]). The “cell growth inhibition in (A) compared to compound in B” value in series [1] was about 15%. In addition, in series [1], the “cell growth inhibition reached on increase of the concentration, in (B)” value (shortened to “cell growth inhibition reached on increase … (B)”) is about 45%. Besides, in series [2], the minimal lethal dose entry is on record as “above 100 mg/kg body weight”. In series [2], the mortality entry is on record as “did not produce mortality”.

In the case of `CC1=C(/C=C/C(C)=C/C=C/C(C)=C/C(=O)N[C@@H](CS(=O)(=O)O)C(=O)N(C)C)C(C)(C)CCC1` [compound I-1h, N-(all-trans-retinoyl)-L-cysteic acid dimethylamide], the inhibition at 0.1 µM was 46.4% in series [1] (setting [3]), 41.8% in series [1] (setting [6]), 26% in series [1] (setting [7]) and 21.3% in series [1] (setting [8]). Besides, the inhibition at 0.01 µM was determined as 39.6% in series [1] (setting [4]), 34.2% in series [1] (setting [9]), 17.4% in series [1] (setting [10]) and 20.4% in series [1] (setting [11]). Besides, the inhibition at 0.001 µM in series [1] (setting [5]) was 32%; in series [1] (setting [12]) it was 26.7%; in series [1] (setting [13]), 7%; in series [1] (setting [14]), 21.1%. In addition, the “number of viable cells” value in series [1] (setting [15]) was 41.3 ± 0.99 × 10^3; in series [1] (setting [16]) it was 46.1 ± 2.65 × 10^3; in series [1] (setting [17]), 51.9 ± 3.46 × 10^3; in series [1] (setting [18]) it was 30.3 ± 1.55 × 10^3; in series [1] (setting [19]) it was 34.1 ± 1.89 × 10^3; in series [1] (setting [20]) it was 38.4 ± 2.11 × 10^3. Besides, the “cell growth inhibition in (A) compared to compound in B” value in series [1] is on record as about 21%. In series [2], the minimal lethal dose result is recorded as “above 100 mg/kg body weight”. Moreover, in series [2], the mortality result was “did not produce mortality”.

Turning to `COC(=O)[C@H](CS(=O)(=O)O)NC(=O)/C=C(C)/C=C/C=C(C)/C=C/C1=C(C)CCCC1(C)C` [compound I-1a, N-(all-trans-retinoyl)-L-cysteic acid methyl ester], in series [1] (setting [3]), the inhibition at 0.1 µM came out at 47.9%. Besides, the inhibition at 0.01 µM in series [1] (setting [4]) turned out to be 45.6%. Also, the inhibition at 0.001 µM in series [1] (setting [5]) worked out at 40%. Moreover, the “number of viable cells” value in series [1] (setting [18]) is reported as 29.8 ± 2.44 × 10^3; in series [1] (setting [19]) it was 31.1 ± 1.90 × 10^3; in series [1] (setting [20]) it was 34.3 ± 2.27 × 10^3. Also, the minimal lethal dose entry in series [2] was “above 100 mg/kg body weight”. Further, in series [2], the mortality result is recorded as “did not produce mortality”.

For the molecule `CC1=C(/C=C/C(C)=C/C=C/C(C)=C/C(=O)N[C@@H](CCS(=O)(=O)O)C(N)=O)C(C)(C)CCC1` [compound I-3f, N-(all-trans-retinoyl)-L-homocysteic acid amide], the inhibition at 0.1 µM stood at 55.2% in series [1] (setting [3]), 53.6% in series [1] (setting [6]), 40.8% in series [1] (setting [7]) and 21.6% in series [1] (setting [8]). For the same molecule, the inhibition at 0.01 µM in series [1] (setting [4]) stood at 48.7%; in series [1] (setting [9]) it was 46.8%; in series [1] (setting [10]), 32.1%; in series [1] (setting [11]), 21.5%. The inhibition at 0.001 µM in series [1] (setting [5]) amounted to 41.4%; in series [1] (setting [12]) it was 39%; in series [1] (setting [13]) it was 21.8%; in series [1] (setting [14]), 21.9%. Besides, the “number of viable cells” value in series [1] (setting [15]) is listed as 32.8 ± 0.99 × 10^3; in series [1] (setting [16]) it was 37.6 ± 1.52 × 10^3; in series [1] (setting [17]), 43.3 ± 2.88 × 10^3; in series [1] (setting [18]), 25.3 ± 0.76 × 10^3; in series [1] (setting [19]), 29.0 ± 1.32 × 10^3; in series [1] (setting [20]), 33.1 ± 1.90 × 10^3. The “cell growth inhibition in (A) compared to compound in B” value in series [1] is listed as about 22%. In addition, the “cell growth inhibition reached on increase … (B)” value in series [1] is about 41%. The minimal lethal dose entry in series [2] is “above 100 mg/kg body weight”. For the same molecule, the mortality result in series [2] is “did not produce mortality”.

Turning to `CC1=C(/C=C/C(C)=C/C=C/C(C)=C\C(=O)N[C@@H](CS(=O)(=O)O)C(N)=O)C(C)(C)CCC1` [compound II-1f, N-(13-cis-retinoyl)-L-cysteic acid amide], the inhibition at 0.1 µM in series [1] (setting [3]) was 53.2%; in series [1] (setting [7]), 45.8%; in series [1] (setting [8]), 15.4%. The inhibition at 0.01 µM came out at 49.8% in series [1] (setting [4]), 47.4% in series [1] (setting [9]), 37.3% in series [1] (setting [10]) and 16.1% in series [1] (setting [11]). The inhibition at 0.001 µM in series [1] (setting [5]) was 45.1%; in series [1] (setting [12]), 40.1%; in series [1] (setting [13]), 27.2%; in series [1] (setting [14]), 17.7%. Further, the “number of viable cells” value is 31.1 ± 0.96 × 10^3 in series [1] (setting [15]); 36.0 ± 1.28 × 10^3 in series [1] (setting [16]); 41.8 ± 1.46 × 10^3 in series [1] (setting [17]); 26.6 ± 1.83 × 10^3 in series [1] (setting [18]); 28.5 ± 2.13 × 10^3 in series [1] (setting [19]); 31.2 ± 2.42 × 10^3 in series [1] (setting [20]). Further, the “cell growth inhibition in (A) compared to compound in B” value in series [1] is given as about 15%. Moreover, the “cell growth inhibition reached on increase … (B)” value in series [1] was about 46%. Further, the minimal lethal dose entry in series [2] is “above 100 mg/kg body weight”. Also, the mortality result in series [2] was “did not produce mortality”.

For the origin of these results see EP1534672B1, “RETINOL DERIVATIVES, THEIR USE IN THE TREATMENT OF CANCER AND FOR POTENTIATING THE EFFICACY OF OTHER CYTOTOXIC AGENTS” (priority 2002, dated 2004).
